Reference: patent US20230416329A1, “A PEPTIDE WITH DISULFIDE BONDS AND INHIBITORY ACTIVITY AGAINST SERINE PROTEASES, DERIVED HYBRID PEPTIDES THEREOF, AND USES THEREOF” (INSTITUTE OF MATERIA MEDICA , CHINESE ACADEMY OF MEDICAL …, priority 2020, published 2023)

Tests used:
DPP-IV = DPP-IV (Homo sapiens, UniProt P27487); experiment: Tolerance of GLP-1 and its analogues to DPP-IV (RP-HPLC remaining peak area); assay type: in vitro ADME; conditions: peptide 25 μM, DPP-IV 0.5 ng/μL, 37° C.; for Remaining peak area (%)/DPP-IV: 0.0 h; for remaining at 0.5 h, 25 μM / remaining at 2 h, 25 μM / remaining at 4 h, 25 μM / remaining at 8 h, 25 μM / remaining at 12 h, 25 μM: isolated DPP-IV enzyme in buffer, pH 8
Description: (§1) Mix by centrifugation at 8000 rpm for 30 seconds.
(2) Arrange a certain volume of 0.005 μg/μL DPP-IV solution in another sterile EP.

elastase = elastase (Sus scrofa, UniProt P00772); experiment: in vitro; conditions: isolated enzyme elastase; for remaining at 0.025 h, 60 μM / remaining at 0.05 h, 60 μM / remaining at 0.075 h, 60 μM / remaining at 0.1 h, 60 μM / remaining at 0.15 h, 60 μM / remaining at 0.25 h, 60 μM / remaining at 0.5 h, 60 μM / remaining at 1 h, 60 μM: pH 8, Remaining peak area (%)/elastase
Description: FIG. 19. […] At different time point, 25 μL aliquots was taken out, and 10% (v/v) TFA was added to terminate the reaction.
as §1
Arrange a certain volume of 0.5 μg/μL elastase solution in another sterile EP. Incubate the EP tubes containing peptides and enzymes at 37° C. for 5 min, and then add 4.5 μL of elastase solution to each EP tube containing peptides and mix well. Start timing and remove 25 μL of reaction solution at 1.5, 3.0, 4.5, 6.0, 9.0, 15.0, 30.0, and 60.0 min later, respectively. Add 3.75 μL of 10% TFA to terminate the reaction and mix well by centrifugation at 8000 rpm for 30 seconds.
Referring to the experimental method in Example 5, in vitro stability of salmon Calcitonin analogs with oral administration activity to the enzymatic hydrolysis by trypsin, chymotrypsin and elastase were performed.
Referring to the experimental method in Example 5, in vitro stability of IL-17A inhibitory peptides towards the enzymatic hydrolysis by trypsin, chymotrypsin and elastase were performed.

[1] = Stability of GLP-1 and its analogues in human serum; conditions: 25% (v/v) human serum; for Remaining peak area (%)/human serum: 0.0 h, peptide 0.03 mM, 37° C.; for remaining at 0.5 h, 0.03 mM / remaining at 2 h, 0.03 mM / remaining at 4 h, 0.03 mM / remaining at 8 h, 0.03 mM / remaining at 12 h, 0.03 mM: human, pH 7

DPP-IV, sequence (P27487 whole entry, species assumed): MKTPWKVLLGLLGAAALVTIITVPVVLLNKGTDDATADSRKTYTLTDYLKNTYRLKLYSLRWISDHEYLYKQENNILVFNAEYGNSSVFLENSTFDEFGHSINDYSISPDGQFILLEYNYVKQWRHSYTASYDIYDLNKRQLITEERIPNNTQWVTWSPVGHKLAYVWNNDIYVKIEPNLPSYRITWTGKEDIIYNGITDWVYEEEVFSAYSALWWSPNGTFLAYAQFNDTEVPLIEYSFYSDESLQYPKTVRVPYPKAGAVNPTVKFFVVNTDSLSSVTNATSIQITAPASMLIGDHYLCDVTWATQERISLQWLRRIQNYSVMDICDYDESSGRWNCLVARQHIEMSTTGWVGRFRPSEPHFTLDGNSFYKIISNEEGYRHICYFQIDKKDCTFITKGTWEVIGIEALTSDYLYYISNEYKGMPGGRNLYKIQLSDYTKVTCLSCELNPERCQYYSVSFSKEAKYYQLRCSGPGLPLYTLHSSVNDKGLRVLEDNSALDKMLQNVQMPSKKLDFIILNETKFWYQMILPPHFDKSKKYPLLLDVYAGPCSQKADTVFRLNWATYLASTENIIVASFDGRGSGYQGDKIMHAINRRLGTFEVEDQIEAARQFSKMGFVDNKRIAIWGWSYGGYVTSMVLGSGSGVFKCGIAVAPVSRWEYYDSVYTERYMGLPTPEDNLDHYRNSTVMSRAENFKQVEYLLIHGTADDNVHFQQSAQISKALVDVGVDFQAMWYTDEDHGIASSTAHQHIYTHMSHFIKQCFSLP
elastase, sequence (P00772 27-266): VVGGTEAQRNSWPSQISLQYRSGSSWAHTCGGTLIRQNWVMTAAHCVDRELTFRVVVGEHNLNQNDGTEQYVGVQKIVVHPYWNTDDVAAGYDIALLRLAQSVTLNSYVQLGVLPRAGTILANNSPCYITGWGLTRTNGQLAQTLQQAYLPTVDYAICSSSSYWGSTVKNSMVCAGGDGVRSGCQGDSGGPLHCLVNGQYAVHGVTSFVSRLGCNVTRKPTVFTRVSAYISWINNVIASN

Row | Compound | Remaining peak area (%)/DPP-IV (DPP-IV) [%] | remaining at 0.5 h, 25 μM (DPP-IV) [%] | remaining at 2 h, 25 μM (DPP-IV) [%] | remaining at 4 h, 25 μM (DPP-IV) [%] | remaining at 8 h, 25 μM (DPP-IV) [%] | remaining at 12 h, 25 μM (DPP-IV) [%] | remaining at 0.025 h, 60 μM (elastase) [%] | remaining at 0.05 h, 60 μM (elastase) [%] | remaining at 0.075 h, 60 μM (elastase) [%] | remaining at 0.1 h, 60 μM (elastase) [%] | remaining at 0.15 h, 60 μM (elastase) [%] | remaining at 0.25 h, 60 μM (elastase) [%] | remaining at 0.5 h, 60 μM (elastase) [%] | remaining at 1 h, 60 μM (elastase) [%] | Remaining peak area (%)/human serum [1] [%] | serum stability (in words) [1] | remaining at 0.5 h, 0.03 mM [1] [%] | remaining at 2 h, 0.03 mM [1] [%] | remaining at 4 h, 0.03 mM [1] [%] | remaining at 8 h, 0.03 mM [1] [%] | further results
1 | CC[C@H](C)[C@H](NC(=O)[C@H](Cc1ccccc1)NC(=O)[C@H](CCC(=O)O)NC(=O)[C@H](CCCCN)NC(=O)[C@H](C)NC(=O)[C@H](C)NC(=O)[C@H](CCC(N)=O)NC(=O)CNC(=O)[C@H](CCC(=O)O)NC(=O)[C@H](CC(C)C)NC(=O)[C@H](Cc1ccc(O)cc1)NC(=O)[C@H](CO)NC(=O)[C@H](CO)NC(=O)[C@@H](NC(=O)[C@H](CC(=O)O)NC(=O)[C@H](CO)NC(=O)[C@@H](NC(=O)[C@H](Cc1ccccc1)NC(=O)[C@@H](NC(=O)CNC(=O)[C@H](CCC(=O)O)NC(=O)[C@H](C)NC(=O)[C@H](Cc1c[nH]cn1)NC(=O)CNC(=O)CNC(=O)[C@@H](NC(=O)[C@@H]1CCCN1C(=O)[C@@H](NC(=O)CN)[C@@H](C)CC)[C@@H](C)CC)[C@@H](C)O)[C@@H](C)O)C(C)C)C(=O)N[C@@H](C)C(=O)N[C@@H](Cc1c[nH]c2ccccc12)C(=O)N[C@@H](CC(C)C)C(=O)N[C@H](C(=O)N[C@@H](CCCCN)C(=O)NCC(=O)N[C@@H](CCCNC(=N)N)C(=O)NCC(=O)NCC(=O)N[C@@H](CCCCN)C(=O)NCC(=O)N[C@@H](CC(C)C)C(=O)N[C@H]1CSSC[C@@H](C(=O)N[C@@H](CCC(N)=O)C(=O)O)NC(=O)[C@H]([C@@H](C)CC)NC(=O)[C@@H]2CCCN2C(=O)[C@@H]2CCCN2C(=O)[C@H]([C@@H](C)CC)NC(=O)[C@H](CO)NC(=O)[C@H](C)NC(=O)[C@H]([C@@H](C)O)NC1=O)C(C)C [D-GLP-1-EC12] | 100.0 ± 0.0 | 93.4 ± 0.8 | 92.3 ± 3 | 91.7 ± 0.6 | 93.3 ± 0.2 | 95.1 ± 1.4 | 93.2 ± 2.4 | 88.9 ± 1.6 | 83.3 ± 1 | 82.7 ± 4.6 | 79.8 ± 2.2 | 72.5 ± 1.6 | 66.1 ± 2.1 | 49.5 ± 1.1 | 100.0 ± 0.0 | more stable in serum | 86.9 ± 3.8 | 79.9 ± 6.2 | 73.9 ± 1.6 | 72.9 ± 8.2 | Remaining peak area (%)/elastase (elastase; 1 h, 60 μM, pH 8): about 45%; remaining at 12 h, 0.03 mM [1]: 53.5 ± 3.7%
2 | CC[C@H](C)[C@H](NC(=O)[C@H](Cc1ccccc1)NC(=O)[C@H](CCC(=O)O)NC(=O)[C@H](CCCCN)NC(=O)[C@H](C)NC(=O)[C@H](C)NC(=O)[C@H](CCC(N)=O)NC(=O)CNC(=O)[C@H](CCC(=O)O)NC(=O)[C@H](CC(C)C)NC(=O)[C@H](Cc1ccc(O)cc1)NC(=O)[C@H](CO)NC(=O)[C@H](CO)NC(=O)[C@@H](NC(=O)[C@H](CC(=O)O)NC(=O)[C@H](CO)NC(=O)[C@@H](NC(=O)[C@H](Cc1ccccc1)NC(=O)[C@@H](NC(=O)CNC(=O)[C@H](CCC(=O)O)NC(=O)[C@H](C)NC(=O)[C@H](Cc1c[nH]cn1)NC(=O)CNC(=O)CNC(=O)[C@@H](NC(=O)[C@@H]1CCCN1C(=O)[C@@H](NC(=O)CN)[C@@H](C)CC)[C@@H](C)CC)[C@@H](C)O)[C@@H](C)O)C(C)C)C(=O)N[C@@H](C)C(=O)N[C@@H](Cc1c[nH]c2ccccc12)C(=O)N[C@@H](CC(C)C)C(=O)N[C@H](C(=O)N[C@@H](CCCCN)C(=O)NCC(=O)N[C@@H](CCCNC(=N)N)C(=O)NCC(=O)NCC(=O)N[C@@H](CCCCN)C(=O)NCC(=O)N[C@@H](CC(C)C)C(=O)N[C@H]1CSSC[C@@H](C(=O)N[C@@H](Cc2ccc(O)cc2)C(=O)O)NC(=O)[C@H](CCC(N)=O)NC(=O)[C@@H]2CCCN2C(=O)[C@@H]2CCCN2C(=O)[C@H]([C@@H](C)CC)NC(=O)[C@H](CO)NC(=O)[C@H](C)NC(=O)[C@H]([C@@H](C)O)NC1=O)C(C)C [D-GLP-1-EC1] | 100.0 ± 0.0 | 82.5 ± 0.6 | 81.2 ± 3.9 | 84 ± 2.2 | 82.5 ± 1.6 | 83.5 ± 0.5 | 73.1 ± 5 | 73.8 ± 2.8 | 70.4 ± 2 | 68.6 ± 2.4 | 66.9 ± 3.9 | 62.1 ± 4.3 | 58.4 ± 4.6 | 44.5 ± 0.9 | 100.0 ± 0.0 | more stable in serum | 73.7 ± 3.7 | 63.5 ± 4.8 | 46.6 ± 6.4 | 42.4 ± 3.5 | remaining at 12 h, 0.03 mM [1]: 27.4 ± 0.3%
